One assay deals with small human bronchi. Nature of the assay: Relaxation of small human bronchi, with and without 2-APB pre-treatment. An excerpt:
More recent studies have lead to the belief that they instead block the TRPC receptor.

Assay [1] deals with human isolated airway preparations (bronchus) contracted with LTD4. Nature of the assay: LTD4-induced contraction of isolated human bronchus preparation (force transducer), remaining contraction after exposure to test substance. The settings on record: for effectiveness in relaxing broncho-constriction in comparison to capsazepine: LTD4 as broncho-contracting agent, test system of Example 1. On the procedure:
Dissection and mounting of lung tissue preparations. Lung tissue was obtained from patients undergoing lobectomia or pulmectomia due to lung carcinoma. The tissue was placed in a dissection chamber continuously perfused with 10 ml min^−1 of a physiological saline solution (PSS) at room temperature. An airway was identified in the cut part of the lobe, and a bronchus of 10-20 mm length and 1-2 mm diameter was obtained. The bronchus was cut into rings of a width of about 2-3 mm. Each bronchial ring was cleaved to obtain an about rectangular oblong preparation, one end of which was tied to a small steel hook connected to a force transducer, while the other end of the preparation was attached to a fixed hook. This is followed by a period of adjustment, as described below. The preparation was mounted in an atmosphere containing […] and 6% of CO2.
Experimental chamber. The experimental chamber has a a volume of 5 ml. It is perfused with PSS at a rate of 3 ml min^−1. Two preparations are mounted in the chamber, and measurements on them are performed in parallel. For mechanical tensioning each force transducer (AME 801, SensoNor A/S, Horten, Norway) is connected to a micrometer screw. The substances to be tested, the reference substance (capsazepine), and transmitter (LTD4) are injected upstream of the preparation(s).
Materials. PPS (physiological saline solution, in mM): NaCl, 117; KCl, 4.87; MgSO4, 0.60; NaHCO3, 25.0; CaCl2, 1.60; glucose, 5.23. The solution is saturated with a mixture of 94% oxygen and 6% carbon dioxide, giving a pH of 7.40±0.05 in the experimental chamber. All substances are prepared as stock solution dissolved in the vehicles ethanol or DMSO. Leukotriene D4 (LTD4; Keyman Ltd.): 10 μl of a 100 μM ethanol stock solution. Capsazepine (Sigma Aldrich): 10 μl of a 0.1 M ethanol stock solution. Substance to be tested: 10-100 μl of a 0.01-0.1 M ethanol or DMSO stock solution. Solution for establishing the passive tension level: calcium-free PSS+2 mM EGTA+20 mM caffeine. To exclude effects by the test substance vehicle, ethanol or DMSO, respectively, were added during the entire experiment except during the presence of test substance.
An exemplary test is shown in FIG. 1 in which capital letters indicate interference with the test system. The material for the preparation was a bronchus (inner diameter about 1 mm) from a occasional smoker but with the epithelium intact. Adjustment and stretch. After mounting as described above the preparation is allowed to adjust with a low passive tone in the experimental chamber. The composition of the gas is changed to 94% (v/v) of oxygen. After a short adjustment period, PSS with 10 nM LTD4 is added to the experimental chamber upstream of the preparation (A). The preparation is stretched repeatedly (B) until it exerts a contraction force of around 150 mg. When the contraction has levelled off, leukotriene-free solution is administered for 1 hour (C), resulting in a relaxation. A second injection of 10 nM LTD4 (D) makes the preparation return to the tensioned state. At the peak tension leukotriene-free solution is again administered (E). After a third injection of 10 nM LTD4 (F) the preparation returns to the tensioned state. At the peak, PSS with 10 μM capsazepine (G) is added, resulting in a relaxation. After 1 h exposure to capsazepine, LTD4 is added, resulting in a contraction (H). In comparison with the control LTD4 contraction (F), a substantially weaker contraction is now observed (H). […]

In another assay the target is VR1 (Rattus norvegicus, UniProt O35433). The settings on record: capsaicin-induced effects in rodents; cited from earlier work.
The subject of assay [2] is guinea pig airway preparations. The settings on record: cited from earlier work.

Chain of VR1 (O35433 whole entry): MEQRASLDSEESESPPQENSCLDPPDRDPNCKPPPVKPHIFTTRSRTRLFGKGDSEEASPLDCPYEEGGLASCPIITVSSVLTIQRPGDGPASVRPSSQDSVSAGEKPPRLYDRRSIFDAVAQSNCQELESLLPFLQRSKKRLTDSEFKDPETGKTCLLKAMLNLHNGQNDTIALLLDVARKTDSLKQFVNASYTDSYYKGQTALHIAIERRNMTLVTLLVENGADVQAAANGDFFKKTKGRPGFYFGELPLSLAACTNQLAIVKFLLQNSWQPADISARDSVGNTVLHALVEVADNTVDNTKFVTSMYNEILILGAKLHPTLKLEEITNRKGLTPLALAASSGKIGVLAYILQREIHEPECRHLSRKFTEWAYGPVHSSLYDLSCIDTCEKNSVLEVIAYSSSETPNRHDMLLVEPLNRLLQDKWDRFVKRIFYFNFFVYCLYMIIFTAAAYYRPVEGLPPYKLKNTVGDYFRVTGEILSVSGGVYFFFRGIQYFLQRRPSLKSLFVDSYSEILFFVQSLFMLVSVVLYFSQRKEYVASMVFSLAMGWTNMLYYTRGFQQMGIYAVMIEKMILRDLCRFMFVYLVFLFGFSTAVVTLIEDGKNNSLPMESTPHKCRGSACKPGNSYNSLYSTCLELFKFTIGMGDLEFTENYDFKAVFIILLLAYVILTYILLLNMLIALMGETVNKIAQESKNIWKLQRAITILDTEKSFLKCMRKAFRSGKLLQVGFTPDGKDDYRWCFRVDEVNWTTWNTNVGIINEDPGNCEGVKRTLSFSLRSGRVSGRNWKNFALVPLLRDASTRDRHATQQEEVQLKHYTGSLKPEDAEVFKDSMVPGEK

`NCCOB(c1ccccc1)c1ccccc1` [2-APB, 2-amino-ethoxydiphenylborate]: the “relaxation of small human bronchi” value in the assay on small human bronchi is “relaxes small human bronchi”.
In the case of `C=C(C)[C@]12C[C@@H](C)[C@@]34O[C@](Cc5ccccc5)(O[C@@H]1[C@@H]3C=C(COC(=O)Cc1cc(I)c(O)c(OC)c1)C[C@]1(O)C(=O)C(C)=C[C@@H]41)O2` [I-RTX, iodo-resiniferatoxin], the “inhibition of leukotriene-induced bronchoconstriction” value in assay [1] (human bronchial preparations, found by the present inventors) is on record as “did not inhibit”. The “VR1 antagonist potency relative to capsazepine” value on VR1 is “at least 40 times”. Also, in assay [2], the “potency of inhibition of capsaicin-induced bronchoconstriction relative to capsazepine” value is 10-30 times.
Turning to `Oc1cc2c(cc1O)CN(C(=S)NCCc1ccccc1)CCC2` [RES 1-83], the “effectiveness in relaxing broncho-constriction in comparison to capsazepine” value in assay [1] is recorded as “substantially less effective”.
The same measure, in the same setting: the same measure for `Oc1cc2c(cc1O)CN(C(=S)NCc1ccc(C(F)(F)F)cc1)CCC2` [RES 3-22]: “about equally effective”; for `Oc1c(Cl)cc2c(c1Cl)CCCN(C(=S)NCCc1ccc(Cl)cc1)C2` [RES 5-21]: “substantially more effective”.
As for `Oc1cc2c(cc1O)CN(C(=S)NCCc1ccc(Cl)cc1)CCC2` [capsazepine], the “remaining contraction (test force) relative to that caused by the control force” value in assay [1] (10 μM capsazepine, 1 h exposure, 10 nM LTD4, bronchus from occasional smoker) is “about 55%”.
As for `Cn1c(=O)c2[nH]cnc2n(C)c1=O` [theophylline], the “relaxation after pre-treatment of small human bronchi with 2-APB” value with small human bronchi (pre-treatment with 2-APB) is listed as “not reduced”.

(Values after US20060040254A1, “Method for identifying bronchoconstriction relaxing substances” (priority 2004, published 2006).)
